The text below walks through data of patent EP4786459A1, “BENZENE RING-CONTAINING COMPOUND HAVING ANALGESIC EFFECT, PREPARATION METHOD THEREFOR, AND USE THEREOF” (West China Hospital, Sichuan University, priority 2023, dated 2025).

A short description of series [1]: Loss of tail withdrawal reflex (LOTWR) in rats, single intravenous injection, dose escalation: potent analgesic effect and severe adverse reactions. It counts as in vivo, SD rats. As to conditions: rat, in vivo, single intravenous injection, minimum dose resulting in serious adverse reactions / minimum effective dose, class symbol, read-out: The safety therapeutic index. The procedure: (§1) Using the loss of tail withdrawal reflex (LOTWR) in rats as an indicator, the potent analgesic effect of the compounds according to the present invention was evaluated.
(§2) 1.1 Experimental animals: Adult male SD rats weighing between 220-300 g were selected for the experiment. The rats were housed in sawdust-bedded cages with a temperature of 25±1°C, humidity ranging from 40% to 60%, and a 12-hour light/12-hour dark cycle. Each cage contained no more than 5 rats, with free access to water and food.
(§3) • (1) The compound of the present invention, along with the positive control drug remifentanil and the negative control (vehicle), were administered in fixed volumes. A dose escalation approach was employed to determine the minimum effective dose at which the compound of the present invention produces potent analgesic effects, as well as the minimum dose at which severe adverse reactions first appear. • (2) LOTWR lasting for 30 seconds was used as the criterion for generating potent analgesic effects. During the experiment, drugs were administered via the tail vein of rats, with a dosage volume of 0.6 mL per rat and a dosage rate of 0.02 mL/s. Subsequently, an alligator clip was applied at a distance of 1 cm from the base of the rat's tail, clamping once longitudinally and once transversely before being left in place. Meanwhile, the distal end of the alligator clip was continuously oscillated (30 times/min) to continuously generate stimulation. […] When all results were "no LOTWR" after 10 minutes of testing (5 trials), the test was stopped and recorded as "ineffective." • (3) All compounds would undergo a dose escalation for efficacy evaluation, starting from 1 mg/kg (due to the high potency of remifentanil, the lowest dose was set at 1 µg/kg), followed by 5 mg/kg, 10 mg/kg, 20 mg/kg, and so on (increasing by 20 mg/kg increments after 20 mg/kg). The dose escalation would be stopped when rats show signs of death, and the lowest effective dose and the lowest dose at which severe adverse reactions occur would be recorded throughout the process. In this study, severe adverse reactions are defined as apnea, generalized tonic rigidity, convulsions, opisthotonus, seizures, etc.
(§4) 1.3 Evaluation indicators: the minimum effective dose; the minimum dose resulting in serious adverse reactions; the safety therapeutic index = "the minimum dose resulting in serious adverse reactions" / "the minimum effective dose".

In a further series the test system is rats. Described as above. Type of series: in vivo, SD rats. The following applies: Rattus norvegicus, single intravenous injection (tail vein), LOTWR lasting for 30 seconds as criterion, class symbol, read-out: The minimum effective dose. The procedure: as §1, §2, §3, §4

For `Cc1ccc(CNC(=N)NCc2ccnn2C)c(N(C)C)c1` [Example 111], in series [1], the selectivity ratio is no more than 2. The minimal effective dose in the series with rats is no more than 10 mg/kg.
As for `Cc1ccc(CNC(=O)NCc2ccnn2C)cc1N(C)C` [Example 112], the selectivity ratio in series [1] was greater than 4. In the series with rats, the minimal effective dose is no more than 10 mg/kg.
Take `Cc1cc(CNC(=O)NCc2ccc(C)c(N(C)C)c2)n(C)n1` [Example 113]: in series [1], the selectivity ratio is greater than 4. Also, the minimal effective dose in the series with rats lay in the range of 10 to 20 mg/kg.
For `CCCCc1ccc(CNC(=S)Nc2cccs2)c(N(C)C)c1` [Example 114], the selectivity ratio in series [1] fell in the range of 2 to 4. The minimal effective dose in the series with rats is no more than 10 mg/kg.
On to `Cc1cc(CNC(=S)NCc2ccc(C)c(N(C)C)c2)n(C)n1` [Example 115], for which the selectivity ratio in series [1] is greater than 4. Further, the minimal effective dose in the series on rats is no more than 10 mg/kg.
Regarding `Cc1ccc(CNC(=S)NCc2ccnn2C)cc1N(C)C` [Example 116], in series [1], the selectivity ratio fell in the range of 2 to 4. Further, the minimal effective dose with rats was no more than 10 mg/kg.
On to `Cc1ccc(CNC(=O)NCc2cc(C)nn2C)c(N(C)C)c1` [Example 117], for which the selectivity ratio in series [1] is 2 to 4. Moreover, the minimal effective dose in the series on rats is greater than 30 mg/kg.
As to `CN(C)c1cc(C(C)(C)C)ccc1CNC(=S)NCc1cccs1` [Example 118], the selectivity ratio in series [1] is no more than 2. Further, the minimal effective dose with rats was no more than 10 mg/kg.
Taken in the same sequence, the figures for `CN(C)c1cc(C2CC2)ccc1CNC(=S)NCc1cccs1` [Example 119] were no more than 2 and no more than 10 mg/kg.
Regarding `CCCCc1ccc(CNC(=O)NCc2ccco2)cc1N(C)C` [Example 120], the selectivity ratio in series [1] is greater than 4. In the series with rats, the minimal effective dose was no more than 10 mg/kg.
For the compound `Cc1ccc(CSC(=S)OCc2ccsc2)c(N(C)C)c1` [Example 121], the selectivity ratio in series [1] lay in the range of 2 to 4. Further, the minimal effective dose in the series on rats was greater than 30 mg/kg.
In the case of `Cc1ccc(NC(=S)NCc2cccs2)c(N(C)C)c1` [Example 122], the selectivity ratio in series [1] was greater than 4. The minimal effective dose in the series with rats is no more than 10 mg/kg.
